Experiment [1] deals with T1, Indoleamine 2,3-dioxygenase 1 (Homo sapiens, UniProt P14902). The experiment can be described thus: Inhibition of human recombinant N-terminus 6X-histidine-tagged indoleamine 2,3-dioxygenase expressed in Escherichia coli assessed as inhibition of L-tryptophan to N-formylkynurenine formation measured as residual enzyme activity at 0.1 uM incubated for 10 mins prior to substrate addition measured ….
Target sequence in this assay (P14902 whole entry, looked up): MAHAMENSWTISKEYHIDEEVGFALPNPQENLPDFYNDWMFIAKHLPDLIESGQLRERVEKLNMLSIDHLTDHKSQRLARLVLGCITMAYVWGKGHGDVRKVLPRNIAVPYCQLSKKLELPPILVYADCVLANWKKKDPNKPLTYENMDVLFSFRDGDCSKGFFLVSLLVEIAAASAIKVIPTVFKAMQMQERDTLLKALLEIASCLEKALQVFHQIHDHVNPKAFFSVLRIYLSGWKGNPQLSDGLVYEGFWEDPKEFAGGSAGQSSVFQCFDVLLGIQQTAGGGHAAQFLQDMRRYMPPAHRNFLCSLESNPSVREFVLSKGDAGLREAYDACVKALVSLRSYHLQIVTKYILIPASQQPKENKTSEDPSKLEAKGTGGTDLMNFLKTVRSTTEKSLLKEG

Experiment [2] has as its target T1, Indoleamine 2,3-dioxygenase 1. The experiment can be described thus: Inhibition of human recombinant N-terminus 6X-histidine-tagged indoleamine 2,3-dioxygenase expressed in Escherichia coli assessed as inhibition of L-tryptophan to N-formylkynurenine formation measured as residual enzyme activity at 1 uM incubated for 10 mins prior to substrate addition measured …; values are per cent of control.
Target sequence in this assay (P14902 whole entry, looked up): as above

Experiment [3] has the same target. The experiment can be described thus: Inhibition of human recombinant N-terminus 6X-histidine-tagged indoleamine 2,3-dioxygenase expressed in Escherichia coli assessed as inhibition of L-tryptophan to N-formylkynurenine formation measured as residual enzyme activity at 10 uM incubated for 10 mins prior to substrate addition measured …; values are per cent of control.
Target sequence in this assay (P14902 whole entry, looked up): as above

Experiment [4] shares this target. The experiment can be described thus: Inhibition of human recombinant N-terminus 6X-histidine-tagged indoleamine 2,3-dioxygenase expressed in Escherichia coli assessed as inhibition of L-tryptophan to N-formylkynurenine formation measured as residual enzyme activity incubated for 10 mins prior to substrate addition measured after 30 mins by UV-vis spectrophotometric analysis relative to DMSO-treated control.
Target sequence in this assay (P14902 whole entry): as the sequence (P14902 whole entry, looked up) above

The structures appear in SMILES notation.

As to `Cc1c2nc3c(C)cccc3oc-2cc(=O)c1N`, the residual activity (usually the signal under treatment as a percentage of the control signal) was determined as 98% in experiment [1], 100% in experiment [2] and 95% in experiment [3].

As to `Nc1cc2nc3c(O)cccc3oc-2cc1=O`, the residual activity in experiment [1] was 100%; in experiment [2] it was 100%; in experiment [3] it was 97%.

For `CC(=O)Nc1cc2nc3c(O)cccc3oc-2cc1=O`, the residual activity in experiment [1] was determined as 100%; in experiment [2], 99%; in experiment [3], 92%.

In the case of `COC(=O)c1c2nc3cc(CO)ccc3oc-2cc(=O)c1N`, the residual activity in experiment [1] amounted to 95%; in experiment [2] it was 75%; in experiment [3] it was 34%.

In the case of `Nc1cc2nc3ccccc3oc-2cc1=O`, the residual activity in experiment [1] was 82%; in experiment [2] it was 94%; in experiment [3], 74%.

As for `COC(=O)c1c2nc3c(C(=O)OC)cccc3oc-2cc(=O)c1N`, the figures for the residual activity in experiment [1], in experiment [2] and in experiment [3] were 94%, 60% and 30%, respectively.

Regarding `Nc1cc2nc3cc(CO)ccc3oc-2cc1=O`, the figures for the residual activity in experiment [1], in experiment [2] and in experiment [3] were 84%, 87% and 80%, respectively.

In the case of `Cc1ccc2oc3cc(=O)c(N)cc-3nc2c1`, the residual activity in experiment [1] amounted to 99%; in experiment [2], 100%; in experiment [3] it was 91%.

Turning to `CC(=O)Nc1cc2nc3cc(CO)ccc3oc-2cc1=O`, the residual activity came out at 85% in experiment [1], 82% in experiment [2] and 74% in experiment [3].

For the molecule `Nc1c(C(=O)O)c2nc3c(C(=O)O)cccc3oc-2cc1=O` [CINNABARINIC ACID], the residual activity stood at 71% in experiment [1], 23% in experiment [2] and 11% in experiment [3]. Moreover, in experiment [4], the IC50 (usually the concentration at which inhibition is half-maximal) was 460 nM. Moreover, in experiment [4], the Ki (as a rule, the dissociation constant of the complex between target and ligand, obtained from inhibition or displacement) turned out to be 326 nM.

In the case of `COC(=O)c1c2nc3c(C(=O)OC)ccc(C)c3oc-2c(C)c(=O)c1N`, the figures for the residual activity in experiment [1], in experiment [2] and in experiment [3] were 66%, 29% and 24%, respectively.

The values are drawn from ChEMBL document CHEMBL2321779, “Aminophenoxazinones as inhibitors of indoleamine 2,3-dioxygenase (IDO). Synthesis of exfoliazone and chandrananimycin A” (J Med Chem, 2013).
